Reference: patent US8580809B2, “Filamin A-binding anti-inflammatory analgesic” (Pain Therapeutics, Inc., priority 2009, dated 2013)

Tests used:
primary human astrocytes = experiment: LPS-induced cytokine release from primary human astrocytes; assay type: cell-based; details: 2 hours prior to LPS and 24 hours
[1] = Mouse hot-water tail-flick test; assay type: in vivo; details: for mean maximum antinociception amount: 56 mg/kg
Procedure: The mouse “tail flick” test was used to assay the relative antinociceptive activity of compositions containing a compound to be assayed. This assay was substantially that disclosed by Xie et al., 2005 J. Neurosci 25:409-416.
The mouse hot-water tail-flick test was performed by placing the distal third of the tail in a water bath maintained at 52° C. The latency until tail withdrawal from the bath was determined and compared among the treatments. A 10 second cutoff was used to avoid tissue damage. Data are converted to percentage of antinociception by the following formula: (response latency−baseline latency)/(cutoff−baseline latency)×100 to generate dose-response curves. […] Relative potency was determined as a ratio of the A50 values.
To assess tolerance to the antinociceptive effect, the compound was administered twice daily for 7 days at an A90 dose (dose that results in a 90% antinociceptive effect in the 52° C. warm-water tail-flick test), and the tail-flick test was performed daily after the a.m. dose.

mu opiate receptor (MOR) = biological target: T1, mu opiate receptor (MOR) (Rattus norvegicus, UniProt P33535); experiment: MOR agonist activity using [35S]GTPγS binding assay in striatal membranes; assay type: biochemical; details: for MOR agonist activity, [35S]GTPγS binding to Gαo, FLNA-binding compound as agonist 0.1 μM: 0.1 μM compound; for MOR agonist activity, [35S]GTPγS binding to Gαo, FLNA-binding compound as agonist 0.1 μM / MOR agonist activity, [35S]GTPγS binding to Gαo, FLNA-binding compound as agonist 1 μM: striatal membranes; for MOR agonist activity, [35S]GTPγS binding to Gαo, 1 μM + BFNA: 1 μM compound + 1 μM β-funaltrexamine; for MOR agonist activity, [35S]GTPγS binding to Gαo, FLNA-binding compound as agonist 1 μM: 1 μM compound
T1 construct: from tissue; host or cells: rat striatal membrane preparation
T1 sequence (P33535 whole entry): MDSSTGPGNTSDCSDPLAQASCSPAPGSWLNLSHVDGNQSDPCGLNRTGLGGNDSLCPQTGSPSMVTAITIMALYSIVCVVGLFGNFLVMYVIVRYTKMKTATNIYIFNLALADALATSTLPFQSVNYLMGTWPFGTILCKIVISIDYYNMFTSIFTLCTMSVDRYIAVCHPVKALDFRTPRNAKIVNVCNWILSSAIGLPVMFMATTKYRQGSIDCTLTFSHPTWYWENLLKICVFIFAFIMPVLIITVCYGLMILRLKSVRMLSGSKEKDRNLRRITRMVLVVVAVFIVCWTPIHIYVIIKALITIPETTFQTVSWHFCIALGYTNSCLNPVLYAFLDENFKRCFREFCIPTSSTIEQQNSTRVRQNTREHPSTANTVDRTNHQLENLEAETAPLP
Procedure: To assess the mu opiate receptor (MOR) agonist activity of positive compounds from the FLNA screening, compounds were tested in a [^35S]GTPγS binding assay using striatal membranes.
Striatal tissue was homogenized in 10 volumes of ice cold 25 mM HEPES buffer, pH 7.4, which contained 1 mM EGTA, 100 mM sucrose, 50 μg/ml leupeptin, 0.04 mM PMSF, 2 μg/ml soybean trypsin inhibitor and 0.2% 2-mercaptoethanol. The homogenates were centrifuged at 800×g for 5 minutes and the supernatants were centrifuged at 49,000×g for 20 minutes.
The resultant striatal membrane preparation (200 μg) was admixed and maintained (incubated) at 30° C. for 5 minutes in reaction buffer as above that additionally contained 1 mM MgCl2 and 0.5 nM [^35S]GTPγS (0.1 μCi/assay, PerkinElmer Life and Analytical Sciences) in a total volume of 250 μl and continued for 5 minutes in the absence or presence of 0.1-10 μM of an assayed compound of interest. The reaction was terminated by dilution with 750 μl of ice-cold reaction buffer that contained 20 mM MgCl2 and 1 mM EGTA and immediate centrifugation at 16,000×g for 5 minutes.
The resulting pellet was solubilized by sonicating for 10 seconds in 0.5 ml of immunoprecipitation buffer containing 0.5% digitonin, 0.2% sodium cholate and 0.5% NP-40. Normal rabbit serum (1 μl) was added to 1 ml of lysate and incubated at 25° C. for 30 minutes. Nonspecific immune complexes were removed by incubation with 25 μl of protein A/G-conjugated agarose beads at 25° C. for 30 minutes followed by centrifugation at 5,000×g at 4° C. for 5 minutes. The supernatant was divided and separately incubated at 25° C. for 30 minutes with antibodies raised against Gαo proteins (1:1,000 dilutions).
The immunocomplexes so formed were collected by incubation at 25° C. for 30 minutes with 40 μl of agarose-conjugated protein A/G beads and centrifugation at 5,000×g at 4° C. for 5 minutes. The pellet was washed and suspended in buffer containing 50 mM Tris-HCl, pH 8.0, and 1% NP-40. The radioactivity in the suspension was determined by liquid scintillation spectrometry. […] DAMGO (H-Tyr-D-Ala-Gly-N-MePhe-Gly-OH; 1 or 10 μM) was used as a positive control.

MOR = MOR (Rattus norvegicus, UniProt P33535); experiment: Relative Gs/Go switching: MOR-G protein coupling in organotypic striatal slice cultures; details: for Go (MOR level in anti-Gαo immunoprecipitates), average / Gs/Go-Coupled Ratio, average / Gs/olf (MOR level in anti-Gαs/olf immunoprecipitates), average: striatal slice culture
Sequence of MOR (P33535 whole entry): as above
Procedure: The threshold for significance was p<0.05.
Striatal slices (200 μM thickness) were prepared using a McIlwain tissue chopper (Mickle Laboratory Engineering Co., Surrey, UK).

[2] = biological target: FLNA VAKGL pentapeptide (Bn-VAKGL) (Homo sapiens, UniProt P21333); experiment: FITC-NLX-based FLNA screening assay (FLNA peptide binding assay)
Procedure: Streptavidin-coated 96-well plates (Reacti-Bind™ NeutrAvidin™ High binding capacity coated 96-well plate, Pierce-ENDOGEN) are washed three times with 200 μl of 50 mM Tris HCl, pH 7.4 according to the manufacturer's recommendation.
Bn-VAKGL peptide (0.5 mg/plate) is dissolved in 50 μl DMSO and then added to 4450 μl of 50 mM Tris HCl, pH 7.4, containing 100 mM NaCl and protease inhibitors (binding medium) as well as 500 μl superblock in PBS (Pierce-ENDOGEN) [final concentration for DMSO: 1%].
The washed streptavidin-coated plates are contacted with 5 μg/well of Bn-VAKGL (100 μl) for 1 hour (incubated) with constant shaking at 25° C. [50 μl of Bn-VAKGL peptide solution from B+50 μl binding medium, final concentration for DMSO: 0.5%]. At the end of the incubation, the plate is washed three times with 200 μl of ice-cold 50 mM Tris HCl, pH 7.4.
The final assay volume is 100 μl. At the end of incubation, the plate is washed twice with 100 μl of ice-cold 50 mM Tris, pH 7.4. The signal, bound-FITC-NLX is detected using a DTX-880 multi-mode plate reader (Beckman).
To screen the medicinal chemistry analogs (new compounds), each compound solution (1 μl) is added to the Bn-VAKGL coated streptavidin plate with 50 μl/well of binding medium followed immediately with addition of 50 μl of FITC-NLX (total assay volume/well is 100 μl). The final screening concentration for each compound is 10 μM. […]

filamin A = filamin A (Homo sapiens, UniProt P21333); details: read-out: affinity of binding to filamin A; cited from earlier work
Sequence of filamin A (P21333 whole entry): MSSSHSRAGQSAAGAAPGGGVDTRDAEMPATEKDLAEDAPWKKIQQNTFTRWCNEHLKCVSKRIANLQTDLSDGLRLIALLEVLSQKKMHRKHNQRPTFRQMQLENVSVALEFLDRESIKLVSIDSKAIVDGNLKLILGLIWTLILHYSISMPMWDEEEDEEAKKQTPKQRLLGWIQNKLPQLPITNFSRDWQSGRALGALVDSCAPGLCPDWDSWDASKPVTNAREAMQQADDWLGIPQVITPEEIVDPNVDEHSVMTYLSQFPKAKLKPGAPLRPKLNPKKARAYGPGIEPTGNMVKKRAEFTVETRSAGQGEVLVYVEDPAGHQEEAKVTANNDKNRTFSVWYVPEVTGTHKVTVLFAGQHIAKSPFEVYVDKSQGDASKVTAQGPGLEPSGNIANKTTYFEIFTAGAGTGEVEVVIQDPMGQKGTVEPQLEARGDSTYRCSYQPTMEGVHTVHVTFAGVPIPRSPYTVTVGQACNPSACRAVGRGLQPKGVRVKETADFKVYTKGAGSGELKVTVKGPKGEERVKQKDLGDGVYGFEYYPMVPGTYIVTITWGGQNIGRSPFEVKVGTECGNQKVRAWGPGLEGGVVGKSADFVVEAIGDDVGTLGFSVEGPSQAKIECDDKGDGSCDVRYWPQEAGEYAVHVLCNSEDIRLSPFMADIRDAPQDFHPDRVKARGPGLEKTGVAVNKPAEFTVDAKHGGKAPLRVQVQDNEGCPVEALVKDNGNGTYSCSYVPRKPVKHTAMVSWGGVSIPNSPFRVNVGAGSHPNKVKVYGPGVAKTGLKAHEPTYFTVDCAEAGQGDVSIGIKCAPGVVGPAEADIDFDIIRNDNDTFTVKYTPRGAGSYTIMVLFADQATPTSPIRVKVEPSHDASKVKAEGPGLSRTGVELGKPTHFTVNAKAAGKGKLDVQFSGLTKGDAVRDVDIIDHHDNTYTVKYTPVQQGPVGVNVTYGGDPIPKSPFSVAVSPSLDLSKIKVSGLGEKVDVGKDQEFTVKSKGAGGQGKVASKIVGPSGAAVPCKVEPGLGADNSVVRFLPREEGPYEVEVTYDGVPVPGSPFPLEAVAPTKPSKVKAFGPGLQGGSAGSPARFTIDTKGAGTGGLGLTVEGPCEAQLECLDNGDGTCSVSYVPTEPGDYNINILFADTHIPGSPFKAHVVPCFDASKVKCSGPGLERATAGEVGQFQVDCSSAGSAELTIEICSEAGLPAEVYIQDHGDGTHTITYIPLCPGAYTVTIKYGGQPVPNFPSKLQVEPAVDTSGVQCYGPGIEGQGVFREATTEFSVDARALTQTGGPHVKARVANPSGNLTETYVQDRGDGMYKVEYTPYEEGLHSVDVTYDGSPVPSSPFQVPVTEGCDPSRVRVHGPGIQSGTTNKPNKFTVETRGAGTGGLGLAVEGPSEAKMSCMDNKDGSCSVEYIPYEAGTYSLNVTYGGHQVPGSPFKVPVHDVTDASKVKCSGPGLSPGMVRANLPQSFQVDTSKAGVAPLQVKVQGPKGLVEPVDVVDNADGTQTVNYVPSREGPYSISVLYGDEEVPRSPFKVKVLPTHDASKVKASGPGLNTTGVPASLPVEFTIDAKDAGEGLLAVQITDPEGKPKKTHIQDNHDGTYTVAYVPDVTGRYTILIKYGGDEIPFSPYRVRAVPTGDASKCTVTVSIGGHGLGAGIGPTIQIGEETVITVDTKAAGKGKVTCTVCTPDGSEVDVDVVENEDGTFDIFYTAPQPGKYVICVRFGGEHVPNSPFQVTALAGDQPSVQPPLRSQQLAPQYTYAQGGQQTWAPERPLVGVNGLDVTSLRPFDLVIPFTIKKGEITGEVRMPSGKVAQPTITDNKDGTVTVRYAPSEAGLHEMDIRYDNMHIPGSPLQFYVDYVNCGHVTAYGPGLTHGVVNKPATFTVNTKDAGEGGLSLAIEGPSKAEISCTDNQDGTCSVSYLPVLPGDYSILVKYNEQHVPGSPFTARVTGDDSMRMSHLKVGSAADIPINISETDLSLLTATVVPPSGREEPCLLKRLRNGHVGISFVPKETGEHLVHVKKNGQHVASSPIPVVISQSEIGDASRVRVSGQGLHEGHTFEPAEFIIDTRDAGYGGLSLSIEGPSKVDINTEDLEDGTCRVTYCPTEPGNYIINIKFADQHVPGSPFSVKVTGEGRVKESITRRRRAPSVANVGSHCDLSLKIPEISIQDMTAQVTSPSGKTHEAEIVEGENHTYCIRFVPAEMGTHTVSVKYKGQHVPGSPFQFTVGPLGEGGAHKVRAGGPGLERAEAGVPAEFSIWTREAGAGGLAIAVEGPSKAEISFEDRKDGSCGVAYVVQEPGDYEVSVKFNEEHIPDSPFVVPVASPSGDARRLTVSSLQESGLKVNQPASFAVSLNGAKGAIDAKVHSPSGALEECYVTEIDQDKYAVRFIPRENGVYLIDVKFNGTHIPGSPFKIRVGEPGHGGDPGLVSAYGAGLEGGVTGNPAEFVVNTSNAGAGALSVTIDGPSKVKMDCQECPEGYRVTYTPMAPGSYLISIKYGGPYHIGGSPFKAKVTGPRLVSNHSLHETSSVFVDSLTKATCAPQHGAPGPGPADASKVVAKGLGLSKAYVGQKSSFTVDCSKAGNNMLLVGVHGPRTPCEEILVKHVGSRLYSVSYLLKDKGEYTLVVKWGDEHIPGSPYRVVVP

C=CCN1CC[C@]23c4c5ccc(O)c4O[C@H]2C(=O)CC[C@]3(O)[C@H]1C5 [(+)Naloxone, (+)naloxone, reference compound]
IL-1β Average % (±SEM) (primary human astrocytes; 10 pM): 75.9 (4.5) % | IL-6 Average % (±SEM) (primary human astrocytes; 10 pM): 56.9 (4.4) % | TNF-α Average % (±SEM) (primary human astrocytes; 10 pM): 58.6 (2.0) % | IL-1β Average % (±SEM) (primary human astrocytes; 1 nM): 10.5 (4.8) % | IL-6 Average % (±SEM) (primary human astrocytes; 1 nM): 6.8 (4.3) % | TNF-α Average % (±SEM) (primary human astrocytes; 1 nM): 9.2 (6.0) %

CS(=O)(=O)c1ccc(S(=O)(=O)N2CCC3(CC2)OCCN3S(=O)(=O)c2ccc(S(C)(=O)=O)cc2)cc1 [Compound C0009]
mean maximum antinociception amount ([1]; oral, at about 10 minutes): about 50% | MOR agonist activity, [35S]GTPγS binding to Gαo, FLNA-binding compound as agonist 0.1 μM (mu opiate receptor (MOR)): 146.3% | MOR agonist activity, [35S]GTPγS binding to Gαo, 1 μM + BFNA (mu opiate receptor (MOR)): 26.4% | MOR agonist activity, [35S]GTPγS binding to Gαo, FLNA-binding compound as agonist 1 μM (mu opiate receptor (MOR)): 256.2%

CC(=O)c1ccc(S(=O)(=O)N2CCC3(CC2)OCCN3S(=O)(=O)c2ccc(C(C)=O)cc2)cc1 [Compound C0011]
mean maximum antinociception amount ([1]; oral, at about 10-20 minutes): about 70% | MOR agonist activity, [35S]GTPγS binding to Gαo, FLNA-binding compound as agonist 0.1 μM (mu opiate receptor (MOR)): 217.0% | MOR agonist activity, [35S]GTPγS binding to Gαo, 1 μM + BFNA (mu opiate receptor (MOR)): 19.0% | MOR agonist activity, [35S]GTPγS binding to Gαo, FLNA-binding compound as agonist 1 μM (mu opiate receptor (MOR)): 305.0% | Go (MOR level in anti-Gαo immunoprecipitates), average (MOR; 10 μM): 1603.3 | Gs/Go-Coupled Ratio, average (MOR; 10 μM): 0.332 | Gs/olf (MOR level in anti-Gαs/olf immunoprecipitates), average (MOR; 10 μM): 534.3 | Go (MOR level in anti-Gαo immunoprecipitates), average (MOR; 100 μM): 1598.8 | Gs/Go-Coupled Ratio, average (MOR; 100 μM): 0.420 | Gs/olf (MOR level in anti-Gαs/olf immunoprecipitates), average (MOR; 100 μM): 658.2

O=C(c1ccc([N+](=O)[O-])cc1)N1CCC2(CC1)OCCN2S(=O)(=O)c1ccc([N+](=O)[O-])cc1 [Compound C0033]
inhibition at 0.1 µM ([2]; read-out: Percent inhibition of FITC-NLX binding, 0.1 μM): 48.4% | inhibition at 1 µM ([2]; read-out: Percent inhibition of FITC-NLX binding, 1 μM): 51.3% | MOR agonist activity, [35S]GTPγS binding to Gαo, FLNA-binding compound as agonist 0.1 μM (mu opiate receptor (MOR)): 134.5% | MOR agonist activity, [35S]GTPγS binding to Gαo, 1 μM + BFNA (mu opiate receptor (MOR)): 76.6% | MOR agonist activity, [35S]GTPγS binding to Gαo, FLNA-binding compound as agonist 1 μM (mu opiate receptor (MOR)): 186.4%

COc1ccc(S(=O)(=O)N2CCOC23CCN(S(=O)(=O)c2ccc(C(C)=O)cc2)CC3)cc1 [Compound C0047]
mean maximum antinociception amount ([1]; at about 20-30 minutes): about 35% | MOR agonist activity, [35S]GTPγS binding to Gαo, FLNA-binding compound as agonist 0.1 μM (mu opiate receptor (MOR)): 142.2% | MOR agonist activity, [35S]GTPγS binding to Gαo, 1 μM + BFNA (mu opiate receptor (MOR)): 80.1% | MOR agonist activity, [35S]GTPγS binding to Gαo, FLNA-binding compound as agonist 1 μM (mu opiate receptor (MOR)): 206.1%

CC(=O)c1ccc(C(=O)N2CCC3(CC2)OCCN3S(=O)(=O)c2ccc(C(C)=O)cc2)cc1 [Compound C0052]
mean maximum antinociception amount ([1]; oral, at about 20 minutes): about 30% | MOR agonist activity, [35S]GTPγS binding to Gαo, FLNA-binding compound as agonist 0.1 μM (mu opiate receptor (MOR)): 108.4% | MOR agonist activity, [35S]GTPγS binding to Gαo, 1 μM + BFNA (mu opiate receptor (MOR)): 42.7% | MOR agonist activity, [35S]GTPγS binding to Gαo, FLNA-binding compound as agonist 1 μM (mu opiate receptor (MOR)): 162.8%

O=C1CN(Cc2ccccc2)C2(CCN(S(=O)(=O)c3cc(Cl)c(O)c(Cl)c3)CC2)N1 [Compound C0139M]
MOR agonist activity, [35S]GTPγS binding to Gαo, FLNA-binding compound as agonist 0.1 μM (mu opiate receptor (MOR)): 156.1% | MOR agonist activity, [35S]GTPγS binding to Gαo, 1 μM + BFNA (mu opiate receptor (MOR)): 51.0% | MOR agonist activity, [35S]GTPγS binding to Gαo, FLNA-binding compound as agonist 1 μM (mu opiate receptor (MOR)): 206.6% | IL-1β Average % (±SEM) (primary human astrocytes; 10 pM): 83.4 (3.0) % | IL-6 Average % (±SEM) (primary human astrocytes; 10 pM): 76.6 (3.1) % | TNF-α Average % (±SEM) (primary human astrocytes; 10 pM): 77.0 (3.2) % | IL-1β Average % (±SEM) (primary human astrocytes; 1 nM): 78.2 (0.7) % | IL-6 Average % (±SEM) (primary human astrocytes; 1 nM): 80.1 (7.0) % | TNF-α Average % (±SEM) (primary human astrocytes; 1 nM): 77.5 (1.8) % | IL-1β Average % (±SEM) (primary human astrocytes; 100 nM): 70.5 (1.6) % | IL-6 Average % (±SEM) (primary human astrocytes; 100 nM): 80.2 (6.3) % | TNF-α Average % (±SEM) (primary human astrocytes; 100 nM): 72.7 (2.5) % | IL-1β Average % (±SEM) (primary human astrocytes; 100 fM): 84.5 (2.6) % | IL-6 Average % (±SEM) (primary human astrocytes; 100 fM): 82.6 (1.6) % | TNF-α Average % (±SEM) (primary human astrocytes; 100 fM): 74.8 (4.3) %

O=C1CC[C@@]2(O)[C@H]3Cc4ccc(O)c5c4[C@@]2(CCN3CC2CC2)[C@H]1O5 [NTX, naltrexone]
Kd (filamin A): ~4 pM

C=CCN1CC[C@]23c4c5ccc(O)c4O[C@H]2C(=O)CC[C@@]3(O)[C@H]1C5 [Naloxone, naloxone]
Kd (filamin A): ~4 pM

COc1ccc2c3c1O[C@H]1C(=O)CC[C@@]4(O)[C@@H](C2)N(C)CC[C@]314 [Oxycodone, oxycodone, reference compound]
Go (MOR level in anti-Gαo immunoprecipitates), average (MOR; 10 μM): 900.4 | switch of μ opioid receptor G protein coupling from Go to Gs (MOR; 7 days of twice daily 1-hour exposures, organotypic striatal slice cultures): switch from Go to Gs coupling

CN1CC[C@]23c4c5ccc(O)c4O[C@H]2[C@@H](O)C=C[C@H]3[C@H]1C5 [morphine, reference compound]
A50 value (95% confidence interval) ([1]; orally administered, mouse, 52° C. tail flick): 61.8 (52.4−72.9) mg/kg
